The text below walks through data of US8410145B2, “Insecticidal compounds” (Syngenta Crop Protection LLC, priority 2007, dated 2013).

What all share (type): in vivo
Assay [1] deals with Spodoptera littoralis, Heliothis virescens, Plutella xylostella, Diabrotica balteata, Thrips tabaci, Tetranychus urticae. The assay can be described thus: Pesticidal tests, same protocols (all six pests taken together). The note with it: same protocols as b207 (200 ppm), under the test conditions. From the text:
(§1) Cotton leaf discs were placed on agar in a 24-well microtiter plate and sprayed with test solutions at an application rate of 200 ppm. After drying, the leaf discs were infested with 5 to L1 larvae. The samples were checked for mortality, feeding behavior, and growth regulation 3 days after treatment (DAT). The following compounds gave at least 80% control of Spodoptera littoralis: A1, A2, A3, A4, A6, A9, A10, A11, A12, A13, A14, A15, A16, A19, A20, A22, A23, A25, A26, A27, B1, B2, B3, B5, B6, B7, B8, B9, B11, B12, B13, B15, B16, B18, B19, B20, B21, B22, B24, B26, B27, B28, C1, C2, C3, C4, C5, C6, C7, C8, C9, C10, C12, C13, C16, C19, C20, C21, C22, C23, D1, D2, D3, D4, D5, D6, D7, D8, D9, D10, D11, D12, D13, D14, D15, D16, D17, D18, D19, D20, D21, D22, D23, D24. Heliothis virescens (Tobacco Budworm): Eggs (0-24 h old) were placed in 24-well microtiter plate on artificial diet and treated with test solutions at an application rate of 200 ppm (concentration in well 18 ppm) by pipetting. After an incubation period of 4 days, samples were checked for egg mortality, larval mortality, and growth regulation. The following compounds gave at least 80% control of Heliothis virescens: A1, A2, A3, A4, A13, A15, A17, A19, A20, A22, A23, A25, A26, A28, B1, B2, B3, B5, B6, B7, B9, B11, B13, B15, B18, B19, B20, B21, B25, B26, B27, B28, C1, C2, C3, C4, C5, C6, C7, C8, C9, C10, C12, C14, C16, C17, C19, C20, C21, C22, D1, D2, D3, D4, D5, D6, D7, D8, D9, D10, D11, D12, D13, D14, D15, D16, D17, D18, D19, D20, D21, D22, D23, E1, E2, E3, E4, E5. Plutella xylostella (Diamond Back Moth): 24-well microtiter plate (MTP) with artificial diet was treated with test solutions at an application rate of 200 ppm (concentration in well 18 ppm) by pipetting. After drying, the MTP's were infested with L2 larvae (7-12 per well). After an incubation period of 6 days, samples were checked for larval mortality and growth regulation. The following compounds gave at least 80% control of Plutella xylostella: A1, A3, A4, A10, All, A15, A19, A23, A25, B1, B2, B3, B5, B6, B7, B8, B9, B11, B13, B15, B18, B19, B20, B21, B26, B27, B28, C1, C2, C3, C4, C6, C7, C8, C9, C12, C16, C19, C20, C22, D1, D2, D3, D4, D5, D6, D7, D8, D9, D10, D12, D13, D14, D15, D16, D17, D18, D19, D20, D21, D22, D23, E1, E3, E5. Diabrotica balteata (Corn Root Worm): A 24-well microtiter plate (MTP) with artificial diet was treated with test solutions at an application rate of 200 ppm (concentration in well 18 ppm) by pipetting. After drying, the MTP's were infested with L2 larvae (6-10 per well). After an incubation period of 5 days, samples were checked for larval mortality and growth regulation. The following compounds gave at least 80% control of Diabrotica balteata: A2, A3, A4, A9, A11, A12, A13, A14, A15, A17, A19, A21, A22, A23, A24, A25, A26, B1, B2, B3, B6, B7, B8, B11, B13, B14, B15, B18, B19, B20, B21, B22, B26, B28, C1, C2, C3, C4, C5, C6, C7, C8, C9, C10, C12, C14, C15, C16, C19, C20, C21, C22, C23, C26, D1, D2, D4, D5, D6, D7, D8, D9, D10, D12, D14, D15, D16, D17, D18, D19, D20, D21, D22, D23, E2, E3, E5. Thrips tabaci (Onion Thrips): Sunflower leaf discs were placed on agar in a 24-well microtiter plate and sprayed with test solutions at an application rate of 200 ppm. After drying, the leaf discs were infested with an […] population of mixed ages. After an incubation period of 7 days, samples were checked for mortality. The following compounds gave at least 80% control of Thrips tabaci: B1, B7, B11, B15, B18, B19, B28, D1, D2, D3, D4, D5, D6, D7, D8, D9, D10, D12, D16, D18, D19, D20, D21, D23. Tetranychus urticae (Two-Spotted Spider Mite): Bean leaf discs on agar in 24-well microtiter plates were sprayed with test solutions at an application rate of 200 ppm. After drying, the leaf discs are infested with mite populations of mixed ages. 8 days later, discs are checked for egg mortality, larval mortality, and adult mortality. […]

For assay [2], the system named is Heliothis virescens (Tobacco Budworm). Briefly: Heliothis virescens egg test on artificial diet. The conditions noted are these: 96 h, 200 ppm (concentration in well 18 ppm), eggs 0-24 h old on artificial diet, egg mortality, larval mortality, growth regulation after 4 days.
Text: as §1

The subject of assay [3] is Tetranychus urticae (Two-Spotted Spider Mite). The assay can be described thus: Tetranychus urticae bean leaf disc spray test. The conditions noted are these: foliar, 192 h, 200 ppm spray on bean leaf discs, mite populations of mixed ages, egg, larval and adult mortality 8 days later.
Text: as §1

The test system of assay [4] is Plutella xylostella (Diamond Back Moth). Briefly: Plutella xylostella larvae test on artificial diet. The note with it: 144 h, 200 ppm (concentration in well 18 ppm), L2 larvae, larval mortality and growth regulation after 6 days.
Text: as §1

Assay [5] concerns Spodoptera littoralis (Egyptian Cotton Leafworm). Briefly: Spodoptera littoralis cotton leaf disc spray test. The note with it: foliar, 72 h, 200 ppm spray on cotton leaf discs, L1 larvae, mortality, feeding behavior, growth regulation 3 DAT.
Text: as §1

Assay [6] deals with Diabrotica balteata (Corn Root Worm). Briefly: Diabrotica balteata larvae test on artificial diet. The conditions noted are these: 120 h, 200 ppm (concentration in well 18 ppm), L2 larvae, larval mortality and growth regulation after 5 days.
Text: as §1

The test system of assay [7] is Thrips tabaci (Onion Thrips). The assay can be described thus: Thrips tabaci sunflower leaf disc spray test. The note with it: foliar, 168 h, 200 ppm spray on sunflower leaf discs, population of mixed ages, mortality after 7 days.
Text: as §1

Take `O=C(Nc1cccc(C2=NOC(c3cc(Cl)cc(Cl)c3)(C(F)(F)F)C2)c1F)c1cc(C(F)(F)F)ccc1F` (racemic) [B23]: the “effect on mortality, feeding behavior, or growth regulation” value (shortened to “effect on mortality, feeding behavior”) in assay [1] is “little or no effect”.

In the case of `O=C(Nc1cc(C2=NOC(c3cc(Cl)cc(Cl)c3)(C(F)(F)F)C2)ccc1F)c1cc(Cl)ccc1F` (racemic) [C11], in assay [1], the “effect on mortality, feeding behavior” value is on record as “little or no effect”.

Take `O=C(Nc1cc(C2=NOC(c3cc(Cl)cc(Cl)c3)(C(F)(F)F)C2)ccc1F)c1cc(C(F)(F)F)ccc1F` (racemic) [C25]: the “effect on mortality, feeding behavior” value in assay [1] was “little or no effect”.

`N#Cc1ccc(C(=O)Nc2cccc(C3=NOC(c4cc(Cl)cc(Cl)c4)(C(F)(F)F)C3)c2)cc1` (stereo not drawn) [A4, 4-cyano-N-{3-[5-(3,5-dichloro-phenyl)-5-trifluoromethyl-4,5-dihydro-isoxazol-3-yl]phenyl}-benzamide]: the pest or weed control at 200 ppm in assay [2], in assay [3], in assay [4], in assay [5] and in assay [6] was at least 80% each time.

Regarding `O=C(Cc1ccc(Cl)cc1)Nc1cccc(C2=NOC(c3cc(Cl)cc(Cl)c3)(C(F)(F)F)C2)c1` (stereo not drawn) [A5], the “effect on mortality, feeding behavior” value in assay [1] was “little or no effect”.

Take `COCC(=O)Nc1cccc(C2=NOC(c3cc(Cl)cc(Cl)c3)(C(F)(F)F)C2)c1` (stereo not drawn) [A7]: in assay [1], the “effect on mortality, feeding behavior” value is on record as “little or no effect”.

As for `O=C(CBr)Nc1cccc(C2=NOC(c3cc(Cl)cc(Cl)c3)(C(F)(F)F)C2)c1` (stereo not drawn) [A8], the “effect on mortality, feeding behavior” value in assay [1] is listed as “little or no effect”.

Consider `O=C(Nc1cccc(C2=NOC(c3cc(Cl)cc(Cl)c3)(C(F)(F)F)C2)c1F)c1ccccc1F` (stereo not drawn) [B1], for which the pest or weed control at 200 ppm in assay [7], in assay [2], in assay [4], in assay [5] and in assay [6] was at least 80% each time.

On to `N#Cc1ccc(C(=O)Nc2cccc(C3=NOC(c4cc(Cl)cc(Cl)c4)(C(F)(F)F)C3)c2F)cc1` (stereo not drawn) [B4], for which the “effect on mortality, feeding behavior” value in assay [1] was “little or no effect”.

As to `O=C(Nc1cccc(C2=NOC(c3cc(Cl)cc(Cl)c3)(C(F)(F)F)C2)c1F)c1ccc([N+](=O)[O-])cc1` (stereo not drawn) [B5], the pest or weed control at 200 ppm in assay [2], in assay [3], in assay [4] and in assay [5] was at least 80% each time.

`O=C(Nc1cccc(C2=NOC(c3cc(Cl)cc(Cl)c3)(C(F)(F)F)C2)c1F)c1ccco1` (stereo not drawn) [B10]: the “effect on mortality, feeding behavior” value in assay [1] was “little or no effect”.

As for `COc1ccccc1C(=O)Nc1cccc(C2=NOC(c3cc(Cl)cc(Cl)c3)(C(F)(F)F)C2)c1F` (stereo not drawn) [B15], the pest or weed control at 200 ppm in assay [7], in assay [2], in assay [4], in assay [5] and in assay [6] was at least 80% each time.

Take `O=C(Nc1cccc(C2=NOC(c3cc(Cl)cc(Cl)c3)(C(F)(F)F)C2)c1F)c1ccc(F)cc1` (stereo not drawn) [B17]: in assay [1], the “effect on mortality, feeding behavior” value was “little or no effect”.

For the molecule `Cc1ccc(C(=O)Nc2cc(C3=NOC(c4cc(Cl)cc(Cl)c4)(C(F)(F)F)C3)ccc2F)cc1` (stereo not drawn) [C9], the pest or weed control at 200 ppm in assay [2], in assay [3], in assay [4], in assay [5] and in assay [6] was at least 80% throughout.

`COc1ccccc1C(=O)Nc1cc(C2=NOC(c3cc(Cl)cc(Cl)c3)(C(F)(F)F)C2)ccc1F` (stereo not drawn) [C18]: the “effect on mortality, feeding behavior” value in assay [1] is given as “little or no effect”.

Consider `O=C(Nc1cc(C2=NOC(c3cc(Cl)cc(Cl)c3)(C(F)(F)F)C2)ccc1F)c1ccc(F)cc1F` (stereo not drawn) [C24], for which the “effect on mortality, feeding behavior” value in assay [1] is “little or no effect”.

Take `N#Cc1ccc(C(=O)Nc2cc(C3=NOC(c4cc(Cl)cc(Cl)c4)(C(F)(F)F)C3)ccc2C#N)cc1` (stereo not drawn) [D1]: the pest or weed control at 200 ppm in assay [7], in assay [2], in assay [3], in assay [4], in assay [5] and in assay [6] was at least 80% in each case.

`N#Cc1ccc(C2=NOC(c3cc(Cl)cc(Cl)c3)(C(F)(F)F)C2)cc1NC(=O)c1ccccc1` (stereo not drawn) [D2]: the pest or weed control at 200 ppm in assay [7], in assay [2], in assay [3], in assay [4], in assay [5] and in assay [6] was at least 80% throughout.

For `N#Cc1ccc(C2=NOC(c3cc(Cl)cc(Cl)c3)(C(F)(F)F)C2)cc1NC(=O)c1ccccc1F` (stereo not drawn) [D5], the pest or weed control at 200 ppm in assay [7], in assay [2], in assay [4], in assay [5] and in assay [6] was at least 80% throughout.

Take `N#Cc1ccc(C2=NOC(c3cc(Cl)cc(Cl)c3)(C(F)(F)F)C2)cc1NC(=O)c1ccc(F)cc1F` (stereo not drawn) [D23]: the pest or weed control at 200 ppm in assay [7], in assay [2], in assay [4], in assay [5] and in assay [6] was at least 80% throughout.
